From article PMC9412555, “Benzothiazole Derivatives Endowed with Antiproliferative Activity in Paraganglioma and Pancreatic Cancer Cells: Structure–Activity Relationship Studies and Target Prediction Analysis” (Pharmaceuticals, 2022)

Tests used:
Capan-2 = test: MTT cell viability assay, Capan-2; type: cell-based; conditions: for IC50: Capan-2 pancreatic cancer, MTT; for IC50 / Inhibition Rate of Cell Viability: 72 h; for Selectivity Index (SI): IC50 in normal (HFF-1) fibroblast cells/IC50 in Capan-2
Description: (§1) Compounds 4a–p were submitted to a preliminary MTT assay at a one-point screening concentration of 75 μM for 72 h, including 2b as a reference compound (Figure 3). […] The presence of the electron-donating methoxy group decreased the activity of 2b, in both the para and meta positions. […] Specifically, these compounds, namely 4d, 4e, 4f, 4h, 4i, 4j, 4k, 4l, and 4m, were tested at concentrations of 3, 6, 12 and 24 µM for 72 h. In addition, the nine compounds, together with 2b, were tested against human fibroblasts HFF-1, in order to evaluate their selectivity against tumor cells, as compared to normal cells. Effects on cancer or normal cell viability were extrapolated from concentration–response curves and are expressed as IC50 values in Table 2.
(§2) Pancreatic cancer (AsPC-1, BxPC-3, and Capan-2), paraganglioma (PTJ86i and PTJ64i) and normal fibroblast (HFF-1) cell lines were cultured as previously described. All compounds were dissolved in DMSO (stock solutions) and then diluted in culture media to the final working concentrations. In this way, the solutions were completely clear and devoid of any undissolved material by microscopic inspection. […] The effects of compounds 4a-p and 2b on cancer cell viability were tested by an MTT assay (Sigma-Aldrich, St. Louis, MO, USA), as described by Florio et al.. In the initial screening all compounds were tested at a one-point screening concentration of 75 μM for 72 h (five replica wells per each condition). […] For combined treatments, the experimental design was made according to the Chou–Talalay method for drug combination studies, as previously described.
(§3) IC50 values were extrapolated from concentration–response curves and calculated using the CompuSyn software. […] Based on this analysis, a CI < 1 indicates synergism, a CI = 1 indicates additive effects and a CI > 1 indicates antagonism. SI values were calculated as previously described. Comparisons of mean values were performed using an unpaired Student’s t-test. For multiple comparisons, a one-way ANOVA followed by Dunnett’s test were employed. A p-value < 0.05 was estimated as statistically significant.

PTJ64i = test: MTT cell viability assay, PTJ64i; type: cell-based; conditions: for Selectivity Index (SI): IC50 in normal (HFF-1) fibroblast cells/IC50 in PTJ64i; for IC50: PTJ64i paraganglioma, MTT, 72 h
Description: as §1, §2, §3

[1] = system: pancreatic (AsPC-1, BxPC-3, and Capan-2) and paraganglioma (PTJ64i and PTJ86i) cancer cell lines; test: One-point MTT screening at 75 µM in cancer cell lines; type: cell-based; conditions: one-point screening concentration of 75 μM for 72 h, five cancer cell lines
Description: as §1, §2
Figure 3 Screening of the effects of novel derivatives (4a–p) on the viability of pancreatic (AsPC-1, BxPC-3, and Capan-2) and paraganglioma (PTJ64i and PTJ86i) cancer cell lines. The lead compound 2b was included as a reference and the histograms show the relative decrease of cancer cell viability observed after treatments, as compared to 2b. Cell viability was assessed by an MTT assay using compounds at 75 µM for 72 h. Data shown are the means ± SD of duplicate experiments with quintuplicate determinations and are calculated as ratios relative to the reference compound 2b (dashed line).

HFF-1 = test: MTT cell viability assay, normal fibroblasts HFF-1; type: cell-based, human; conditions: 72 h; for IC50: HFF-1 normal cells, MTT
Description: All compounds were dissolved in DMSO (stock solutions) and then diluted in culture media to the final working concentrations. […] The effects of compounds 4a-p and 2b on cancer cell viability were tested by an MTT assay (Sigma-Aldrich, St. Louis, MO, USA), as described by Florio et al. [17]. In the initial screening all compounds were tested at a one-point screening concentration of 75 μM for 72 h (five replica wells per each condition).
IC50 values were extrapolated from concentration–response curves and calculated using the CompuSyn software [45]. […] SI values were calculated as previously described [46]. Comparisons of mean values were performed using an unpaired Student’s t-test. For multiple comparisons, a one-way ANOVA followed by Dunnett’s test were employed. A p-value < 0.05 was estimated as statistically significant.

AsPC-1 = test: MTT cell viability assay, AsPC-1; type: cell-based; conditions: for IC50: AsPC-1 pancreatic cancer, MTT; for IC50 / Inhibition Rate of Cell Viability: 72 h; for Selectivity Index (SI): IC50 in normal (HFF-1) fibroblast cells/IC50 in AsPC-1
Description: as §1, §2, §3

PTJ86i = test: MTT cell viability assay, PTJ86i; type: cell-based; conditions: for Selectivity Index (SI): IC50 in normal (HFF-1) fibroblast cells/IC50 in PTJ86i; for IC50: PTJ86i paraganglioma, MTT, 72 h
Description: as §1, §2, §3

BxPC-3 = test: MTT cell viability assay, BxPC-3; type: cell-based; conditions: for IC50: BxPC-3 pancreatic cancer, MTT; for IC50 / Inhibition Rate of Cell Viability: 72 h; for Selectivity Index (SI): IC50 in normal (HFF-1) fibroblast cells/IC50 in BxPC-3
Description: as §1, §2, §3

Structure (SMILES)	IC50 (Capan-2; Homo sapiens)	Selectivity Index (SI) (Capan-2)	Selectivity Index (SI) (PTJ64i)	IC50 (PTJ64i)	effect on cancer cell viability, potency compared with 2b [1]	melting point	IC50 (HFF-1; Homo sapiens)	IC50 (AsPC-1; Homo sapiens, ASPC1)	Selectivity Index (SI) (AsPC-1)	Selectivity Index (SI) (PTJ86i)	IC50 (PTJ86i)	IC50 (BxPC-3; Homo sapiens)	Selectivity Index (SI) (BxPC-3)	further results
O=C(Nc1cccc(F)c1)C(Sc1nc2cc(Cl)ccc2s1)c1ccccc1 (stereo not shown) [4i, 2-[(5-Chlorobenzo[d]thiazol-2-yl)thio]-N-(3-fluorophenyl)-2-phenylacetamide]	28.5 µM	0.53	1.74	8.6 µM	greater antiproliferative activity than 2b	151 to 153 °C	15 µM	14.8 µM	1.01	1.28	11.7 µM	18.6 µM	0.81	
O=C(Nc1cccc(Cl)c1)C(Sc1nc2cc(Cl)ccc2s1)c1ccccc1 (stereo not shown) [4h, 2-[(5-Chlorobenzo[d]thiazol-2-yl)thio]-N-(3-chlorophenyl)-2-phenylacetamide]	17.7 µM			7.27 µM	greater antiproliferative activity than 2b		11.6 µM	12.2 µM			16.6 µM	12 µM		
O=C(Nc1ccc(Cl)cc1)C(Sc1nc2cc(Cl)ccc2s1)c1ccccc1 (stereo not shown) [4b, 2-[(5-Chlorobenzo[d]thiazol-2-yl)thio]-N-(4-chlorophenyl)-2-phenylacetamide]						178 to 180 °C								
CC(=O)Nc1cccc(NC(=O)C(Sc2nc3cc(Cl)ccc3s2)c2ccccc2)c1 (stereo not shown) [4l, N-(3-Acetamidophenyl)-2-[(5-chlorobenzo[d]thiazol-2-yl)thio]-2-phenylacetamide]	33.8 µM	1.99	6.62	10.1 µM	greater antiproliferative activity than 2b		67.1 µM	14.8 µM	4.54	3.37	19.9 µM	13.7 µM	4.91	Inhibition Rate of Cell Viability (Capan-2; Capan-2, 4l 0.5 µM): 9.34%; Inhibition Rate of Cell Viability (Capan-2; Capan-2, 4l 5 µM): 30.25%; Inhibition Rate of Cell Viability (Capan-2; Capan-2, 4l 50 µM): 43.30%; Inhibition Rate of Cell Viability (HFF-1; HFF-1, 4l 0.5 µM): 0.00%; Inhibition Rate of Cell Viability (HFF-1; HFF-1, 4l 5 µM): 1.00%; Inhibition Rate of Cell Viability (HFF-1; HFF-1, 4l 50 µM): 17.69%; Inhibition Rate of Cell Viability (AsPC-1; AsPC-1, 4l 0.5 µM): 13.40%; Inhibition Rate of Cell Viability (AsPC-1; AsPC-1, 4l 5 µM): 18.87%; Inhibition Rate of Cell Viability (AsPC-1; AsPC-1, 4l 50 µM): 42.97%; Inhibition Rate of Cell Viability (BxPC-3; BxPC-3, 4l 0.5 µM): 6.00%; Inhibition Rate of Cell Viability (BxPC-3; BxPC-3, 4l 5 µM): 9.54%; Inhibition Rate of Cell Viability (BxPC-3; BxPC-3, 4l 50 µM): 70.50%
COc1cccc(NC(=O)C(Sc2nc3cc(Cl)ccc3s2)c2ccccc2)c1 (stereo not shown) [4g, 2-[(5-Chlorobenzo[d]thiazol-2-yl)thio]-N-(3-methoxyphenyl)-2-phenylacetamide]					exception	160 to 162 °C								
CC(=O)Nc1ccc(NC(=O)C(Sc2nc3cc(Cl)ccc3s2)c2ccccc2)cc1 (stereo not shown) [4f, N-(4-Acetamidophenyl)-2-[(5-chlorobenzo[d]thiazol-2-yl)thio]-2-phenylacetamide]	20.1 µM	0.33	0.53	12.3 µM	greater antiproliferative activity than 2b	243 °C (dec.)	6.54 µM	10 µM	0.65	0.51	12.8 µM	18.9 µM	0.35	
O=C(Nc1cccc(C(F)(F)F)c1)C(Sc1nc2cc(Cl)ccc2s1)c1ccccc1 (stereo not shown) [4j, 2-[(5-Chlorobenzo[d]thiazol-2-yl)thio]-2-phenyl-N-[3-(trifluoromethyl)phenyl]acetamide]	24.2 µM			11.2 µM	greater antiproliferative activity than 2b		18.1 µM	9.53 µM			17.5 µM	14 µM		
COc1ccc(NC(=O)C(Sc2nc3cc(Cl)ccc3s2)c2ccccc2)cc1 (stereo not shown) [4a, 2-[(5-Chlorobenzo[d]thiazol-2-yl)thio]-N-(4-methoxyphenyl)-2-phenylacetamide]						190 °C (dec.)								
O=C(Nc1ccc(C(F)(F)F)cc1Br)C(Sc1nc2cc(Cl)ccc2s1)c1ccccc1 (stereo not shown) [4o, N-[2-Bromo-4-(trifluoromethyl)phenyl]-2-[(5-chlorobenzo[d]thiazol-2-yl)thio]-2-phenylacetamide]					exception	179 to 180 °C								
O=C(Nc1cc([N+](=O)[O-])ccc1Br)C(Sc1nc2cc(Cl)ccc2s1)c1ccccc1 (stereo not shown) [4n, N-(2-Bromo-5-nitrophenyl)-2-[(5-chlorobenzo[d]thiazol-2-yl)thio]-2-phenyl Acetamide]					exception									
O=C(Nc1ccc(Cl)c(Cl)c1)C(Sc1nc2cc(Cl)ccc2s1)c1ccccc1 (stereo not shown) [4m, 2-[(5-Chlorobenzo[d]thiazol-2-yl)thio]-N-(3,4-dichlorophenyl)-2-phenyl Acetamide]		0.77	1.32	7.84 µM	greater antiproliferative activity than 2b				1.22	0.52	19.9 µM		1.05	IC50 (Capan-2): 13.3 µM; IC50 (HFF-1): 10.3 µM; IC50 (AsPC-1): 8.49 µM; IC50 (BxPC-3): 9.81 µM
Nc1ccn([C@@H]2O[C@H](CO)[C@@H](O)C2(F)F)c(=O)n1 [GEM, gemcitabine, reference compound]														Inhibition Rate of Cell Viability (Capan-2; Capan-2, GEM 0.1 µM): 26.87%; Inhibition Rate of Cell Viability (Capan-2; Capan-2, GEM 1 µM): 27.22%; Inhibition Rate of Cell Viability (Capan-2; Capan-2, GEM 10 µM): 38.65%; Inhibition Rate of Cell Viability (AsPC-1; AsPC-1, GEM 0.1 µM): 54.21%; Inhibition Rate of Cell Viability (AsPC-1; AsPC-1, GEM 1 µM): 63.25%; Inhibition Rate of Cell Viability (AsPC-1; AsPC-1, GEM 10 µM): 64.63%; Inhibition Rate of Cell Viability (BxPC-3; BxPC-3, GEM 0.1 µM): 65.02%; Inhibition Rate of Cell Viability (BxPC-3; BxPC-3, GEM 1 µM): 64.65%; Inhibition Rate of Cell Viability (BxPC-3; BxPC-3, GEM 10 µM): 62.50%
O=C(Nc1ccc(C(F)(F)F)cc1)C(Sc1nc2cc(Cl)ccc2s1)c1ccccc1 (stereo not shown) [4d, 2-[(5-Chlorobenzo[d]thiazol-2-yl)thio]-2-phenyl-N-[4-(trifluoromethyl)phenyl] Acetamide]		1.03	1.36	6.79 µM	greater antiproliferative activity than 2b				1.20	0.74	12.4 µM		2.31	IC50 (Capan-2): 8.97 µM; IC50 (HFF-1): 9.23 µM; IC50 (AsPC-1): 7.66 µM; IC50 (BxPC-3): 3.99 µM
O=C(Nc1cc(C(F)(F)F)ccc1Br)C(Sc1nc2cc(Cl)ccc2s1)c1ccccc1 (stereo not shown) [4p, N-[2-Bromo-5-(trifluoromethyl)phenyl]-2-[(5-chlorobenzo[d]thiazol-2-yl)thio]-2-phenylacetamide]					exception	157 to 159 °C								
